Data from patent publication US20090130085A1, “Amidino-Compounds for Stabilizing Factor VII Polypeptide Formulations” (NOVO NORDISH HEALTHCARE AG, priority 2005, published 2009).

Target: T1, rhFVIIa (Homo sapiens, UniProt P08709)
T1 construct: Typically, Factor VII is cleaved between amino acid residues 152 and 153 to yield Factor VIIa
T1 sequence (P08709 61-212 limits assumed): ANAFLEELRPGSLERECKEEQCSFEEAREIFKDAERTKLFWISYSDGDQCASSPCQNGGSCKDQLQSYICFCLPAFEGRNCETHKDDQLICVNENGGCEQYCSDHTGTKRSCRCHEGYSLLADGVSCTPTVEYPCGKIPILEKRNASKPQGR
T1 sequence (P08709 213-466 limits assumed): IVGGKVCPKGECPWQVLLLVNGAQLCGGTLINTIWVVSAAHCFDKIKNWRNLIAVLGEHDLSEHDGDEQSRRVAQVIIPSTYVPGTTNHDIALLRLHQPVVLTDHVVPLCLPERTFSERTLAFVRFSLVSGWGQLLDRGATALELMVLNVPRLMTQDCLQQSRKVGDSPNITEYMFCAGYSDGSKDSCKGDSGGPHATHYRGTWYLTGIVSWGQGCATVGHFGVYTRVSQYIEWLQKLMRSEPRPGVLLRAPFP
Test: Clot assay / one-stage coagulation assay of stored rhFVIIa formulations
Format: biochemical
Details: 1 mM compound in 1.0 mg/mL rhFVIIa formulation, pH 6.5, stored at 5° C. and 25° C.
Source text: The biological activity of Factor VII (as Factor VIIa) in blood clotting derives from its ability to (i) bind to tissue factor (TF) and (ii) catalyze the proteolytic cleavage of Factor IX or Factor X to produce activated Factor IX or X (Factor IXa or Xa, respectively). Human Factor VIIa biological activity may be quantified by an assay measuring the ability of a preparation to promote blood clotting using Factor VII-deficient plasma and thromboplastin, as described, e.g., in U.S. Pat. No. 5,997,864. In this assay, biological activity is expressed as the reduction in clotting time relative to a control sample and is converted to “Factor VII units” by comparison with a pooled human […] standard containing 1 unit/ml Factor VII activity. […] Coagulation times (clotting times) are measured and compared to a standard curve using a reference standard in a parallel line assay. Alternatively, Factor VIIa biological activity may be quantified by (i) measuring the ability of Factor VIIa to produce Factor Xa in a system comprising TF embedded in a lipid membrane and Factor X. (Persson et al., J. Biol. Chem. 272:19919-19924, 1997); (ii) measuring Factor X hydrolysis in an aqueous system; (iii) measuring its physical binding to TF using an instrument based on surface plasmon resonance (Persson, FEBS Letts. 413:359-363, 1997) and (iv) measuring hydrolysis of a synthetic substrate. […]

- stabilizing effect with respect to retention of activity of FVIIa: marked stabilizing effect
Structure (SMILES): COc1cccc([C@H](C)NC(=O)COC(=O)Nc2ccc(C(=N)N)cc2)c1 [Example 1, (S)-(4-carbamimidoylphenyl)carbamic acid [1-(3-methoxyphenyl)ethylcarbamoyl]methyl ester]
